Activity calls are given as the source filed them.
Legend:
[1] = HIV-1 AD8 envelope cell-cell fusion blockers – cherry-pick, dose response (AID 652062); assay type: functional, cell-based;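 also: luciferase signal from cell-cell fusion driven by HIV-1 clade B AD8 Env; potency is for inhibitors of fusion seen as a drop in luminescence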
[2] = blockers of HIV-1 ZM109 envelope-driven cell-cell fusion – HeLa effector, CEM target cells, luciferase, cherry-pick, dose response (AID 652058); assay type: functional, cell-based;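 also: luciferase signal from HIV-1 Env mediated cell-cell fusion of effector and target cells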
[3] = Luminescence-based cell-based high throughput dose response assay to identify activators of the DAF-12 from the parasite S. stercoralis (ssDAF-12).; assay type: functional
[4] = general mammalian cell viability loss – inhibitor set, cherry-pick, set 2, cytotoxicity control for miR-122 modulator project, dose response (AID 720697); assay type: functional, cell-based
[5] = activation of miR-122 Renilla sensor silencing – cell-based, Huh7 psiCHECK-miR122, Renilla luciferase, cherry-picked, dose response (AID 651956); assay type: functional;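 also: huh7 hepatoma cells stably carrying a psiCHECK-2 miR-122 sensor plasmid; renilla luciferase signal reporting endogenous miR-122 activity after 48 h compound exposure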
[6] = tested on: Vero; assay: cells; assay type: functional; settings: Chlorocebus sabaeus
[7] = intracellular Trypanosoma cruzi inhibitors in host cells – cell-based, plate reader, cherry-pick samples, set 3, dose response (AID 651818); assay type: functional;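 also: compounds incubated with infected cells for about four days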
[8] = target: Paired box protein Pax-8 (Homo sapiens, UniProt Q06710); assay: PAX8 transcriptional activity inhibition in RMG-I – RMG-I cells, luciferase, cherry-pick, dose response (AID 687027); assay type: functional, cell-based;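 also: luciferase reporter driven by Pax8 target thyroperoxidase promoter measured by SteadyGlo luminescence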
Chain of Paired box protein Pax-8 (Q06710 whole entry): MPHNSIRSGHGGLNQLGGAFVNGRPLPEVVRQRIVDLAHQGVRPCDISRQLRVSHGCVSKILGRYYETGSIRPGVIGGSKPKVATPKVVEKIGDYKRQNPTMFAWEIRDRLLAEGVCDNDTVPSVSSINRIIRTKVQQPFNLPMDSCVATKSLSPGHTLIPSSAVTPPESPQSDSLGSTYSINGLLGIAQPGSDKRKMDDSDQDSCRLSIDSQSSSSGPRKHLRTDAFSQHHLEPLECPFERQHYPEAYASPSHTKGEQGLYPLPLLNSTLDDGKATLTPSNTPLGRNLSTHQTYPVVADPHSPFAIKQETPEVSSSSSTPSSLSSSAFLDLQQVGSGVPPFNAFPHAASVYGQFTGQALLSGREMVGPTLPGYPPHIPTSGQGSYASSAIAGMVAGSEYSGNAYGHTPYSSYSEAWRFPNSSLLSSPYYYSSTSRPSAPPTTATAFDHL

[9] = general cell-killing toxicity readout – plate reader, dry powder samples, cytotoxicity control for PAX8 inhibitor project, dose response (AID 743021); assay type: functional, cell-based
[10] = target: T1, Bcl-2-related protein A1 (Mus musculus, UniProt Q07440); assay type: functional;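 also: confirmatory dose–response counterscreen on Bfl-1, used to check hits from a UBC13 polyubiquitin inhibitor campaign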
T1 sequence (Q07440 whole entry): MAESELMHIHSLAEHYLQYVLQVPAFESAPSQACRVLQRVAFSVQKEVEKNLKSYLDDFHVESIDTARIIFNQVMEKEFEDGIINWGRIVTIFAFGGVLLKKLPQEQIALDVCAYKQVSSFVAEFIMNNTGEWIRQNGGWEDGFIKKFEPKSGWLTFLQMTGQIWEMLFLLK

[11] = HEK-293T cell viability reduction – luminescence, B-cell screen hits, cytotoxicity control for BCR NF-kB inhibitor project, dose response (AID 489021); assay type: functional, cell-based;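 also: HEK-293T cells carrying an NF-kB luciferase reporter; cells exposed to compound for about 14 hours before viability readout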
[12] = target: Induced myeloid leukemia cell differentiation protein Mcl-1 (Homo sapiens, UniProt Q07820); assay type: functional
Chain of Induced myeloid leukemia cell differentiation protein Mcl-1 (Q07820 whole entry): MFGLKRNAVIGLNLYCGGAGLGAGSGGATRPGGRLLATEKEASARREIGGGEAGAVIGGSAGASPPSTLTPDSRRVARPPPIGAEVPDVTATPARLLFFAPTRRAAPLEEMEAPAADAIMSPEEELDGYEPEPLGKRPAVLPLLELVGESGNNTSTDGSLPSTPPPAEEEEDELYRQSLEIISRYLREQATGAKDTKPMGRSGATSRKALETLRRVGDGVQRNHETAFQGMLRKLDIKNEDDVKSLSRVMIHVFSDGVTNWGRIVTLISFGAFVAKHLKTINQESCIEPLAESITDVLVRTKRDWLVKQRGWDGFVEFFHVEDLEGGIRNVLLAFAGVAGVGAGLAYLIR

[13] = NIH3T3 cell viability loss – ATP luminescence, mouse fibroblasts, counter-screen, dose response (AID 2010); assay type: functional, cell-based;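 also: cells exposed to compound for about 90 hours before reading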
[14] = Trypanosoma cruzi growth suppression in host cells – NIH3T3 host cells, beta-gal luminescence, confirmation (AID 2044); assay type: functional, cell-based;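 also: intracellular parasites grown in NIH/3T3 mouse fibroblasts as host cells; luminescent beta-galactosidase reporter signal from transgenic T. cruzi replicating inside host cells; inhibitors lower the luminescence signal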
[15] = viability of PTEN-deleted HCT116 cells – cell-based, HCT116 PTEN knockout, dose response (AID 1047); assay type: functional;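 also: HCT116 colon tumor cells with PTEN knocked out; cells exposed to compound for 60 hours before readout; potency for loss of cell viability measured by luminescence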
[16] = viability of HCT116 lacking mutant beta-catenin – cell-based, human colon tumor, dose response (AID 1045); assay type: functional;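 also: HCT116 colon tumor cells with beta catenin knocked out; cells exposed to compound for 60 hours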
[17] = NIH-3T3 fibroblast cytotoxicity, dose response, cytotoxicity control, cell-based, fluorescence, Alamar Blue, secondary assay (AID 2327); assay type: functional;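 also: NIH-3T3 mouse fibroblasts cultured with fluconazole at 8 µg/mL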
[18] = fluconazole-exposed Candida albicans growth modulators – fluorescence, retest, confirmation (AID 2467); assay type: functional, cell-based
[19] = target: Prothrombin (Homo sapiens, UniProt P00734); assay: Thrombin 1536 HTS Dose Response Confirmation. [Related pubchem assays: 1046 (Thrombin 1536 HTS; hits were confirmed in this assay)]; assay type: functional
[20] = tested on: HEK293; assay: cells; assay type: functional, cell-based; settings: Homo sapiens
[21] = reduction of Shn3 3'UTR-driven luciferase in osteoblasts – cell-based, Clone20 osteoblasts, firefly luciferase, cherry-picked, dose response (AID 624132); assay type: functional;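 also: firefly luciferase luminescence from reporter carrying the Shn3 3'UTR in osteoblasts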
[22] = target: Nucleotide-binding oligomerization domain-containing protein 2 (Homo sapiens, UniProt Q9HC29); assay: inhibition of NOD2-driven NF-kB reporter – cell-based, luminescence, uHTS, HEK293 (AID 1566); assay type: functional
Chain of Nucleotide-binding oligomerization domain-containing protein 2 (Q9HC29 whole entry, the tested form may be a part): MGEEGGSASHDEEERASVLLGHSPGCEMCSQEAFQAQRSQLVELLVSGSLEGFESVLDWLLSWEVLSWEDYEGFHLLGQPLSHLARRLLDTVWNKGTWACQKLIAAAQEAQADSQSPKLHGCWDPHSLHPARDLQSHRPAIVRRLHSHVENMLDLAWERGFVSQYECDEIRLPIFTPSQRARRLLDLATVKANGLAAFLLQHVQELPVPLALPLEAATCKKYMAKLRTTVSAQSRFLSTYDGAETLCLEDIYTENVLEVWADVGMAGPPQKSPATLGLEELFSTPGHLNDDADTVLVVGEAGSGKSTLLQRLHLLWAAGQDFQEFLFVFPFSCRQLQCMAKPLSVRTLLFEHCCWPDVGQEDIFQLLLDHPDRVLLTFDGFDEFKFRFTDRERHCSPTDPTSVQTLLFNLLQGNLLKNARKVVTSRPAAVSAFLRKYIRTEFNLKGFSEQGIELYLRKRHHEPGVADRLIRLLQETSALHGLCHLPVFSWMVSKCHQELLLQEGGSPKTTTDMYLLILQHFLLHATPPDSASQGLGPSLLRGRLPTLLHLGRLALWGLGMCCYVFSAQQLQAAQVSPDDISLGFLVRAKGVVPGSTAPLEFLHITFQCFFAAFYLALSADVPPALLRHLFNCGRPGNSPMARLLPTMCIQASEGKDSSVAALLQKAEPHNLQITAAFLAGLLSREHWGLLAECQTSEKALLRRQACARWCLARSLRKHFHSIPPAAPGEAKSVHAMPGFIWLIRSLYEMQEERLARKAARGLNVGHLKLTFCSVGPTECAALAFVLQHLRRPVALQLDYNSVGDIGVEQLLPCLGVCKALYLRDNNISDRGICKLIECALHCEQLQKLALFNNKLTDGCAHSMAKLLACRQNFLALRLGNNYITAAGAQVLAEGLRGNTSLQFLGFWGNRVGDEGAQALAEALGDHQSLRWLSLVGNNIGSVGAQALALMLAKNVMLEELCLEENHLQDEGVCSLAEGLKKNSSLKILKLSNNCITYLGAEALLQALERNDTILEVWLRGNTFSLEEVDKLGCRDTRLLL

[23] = tested on: HEK293; assay: cells; assay type: functional, cell-based; settings: Homo sapiens; remark: listed apart in the source
[24] = tested on: HEK293; assay: NOD2 signaling inhibitors in MDP-stimulated cells, cell-based, uHTS, luminescence (AID 2001); assay type: functional; settings: Homo sapiens
[25] = tested on: HEK293; assay: inhibition of NOD1-driven NF-kB reporter – cell-based, luminescence, uHTS, primary screen (AID 1578); assay type: functional; settings: Homo sapiens
[26] = non-specific 3'UTR reporter inhibition in Clone20-Shn3RL – cell-based, Renilla luciferase, cherry-picked, counter-screen for Shn3 inhibitor project, dose response (AID 624133); assay type: functional
[27] = tested on: HEK293; assay: cells; assay type: functional, cell-based; settings: Homo sapiens; remark: listed apart in the source
[28] = blockers of HIV-1 envelope-mediated cell-cell fusion – cherry-pick, dose response (AID 652057); assay type: functional, cell-based
[29] = A Cell Based Secondary Assay To Explore Cytotoxicity of Compounds that Sensitize Mycobacterium Tuberculosis to Beta-Lactam Antibiotics.; assay type: functional
[30] = cells; assay type: functional, cell-based
[31] = target: T2, Microphthalmia-associated transcription factor (Homo sapiens, UniProt O75030); assay: reducers of TRPM1 reporter luminescence, concentration series – cell-based, SK-MEL-5, cherry-picked, set 3, MITF inhibitor project, dose response (AID 493073); assay type: functional;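 also: SK-MEL-5 melanoma cells with luciferase driven by the MITF target TRPM1 promoter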
T2 sequence (O75030 whole entry): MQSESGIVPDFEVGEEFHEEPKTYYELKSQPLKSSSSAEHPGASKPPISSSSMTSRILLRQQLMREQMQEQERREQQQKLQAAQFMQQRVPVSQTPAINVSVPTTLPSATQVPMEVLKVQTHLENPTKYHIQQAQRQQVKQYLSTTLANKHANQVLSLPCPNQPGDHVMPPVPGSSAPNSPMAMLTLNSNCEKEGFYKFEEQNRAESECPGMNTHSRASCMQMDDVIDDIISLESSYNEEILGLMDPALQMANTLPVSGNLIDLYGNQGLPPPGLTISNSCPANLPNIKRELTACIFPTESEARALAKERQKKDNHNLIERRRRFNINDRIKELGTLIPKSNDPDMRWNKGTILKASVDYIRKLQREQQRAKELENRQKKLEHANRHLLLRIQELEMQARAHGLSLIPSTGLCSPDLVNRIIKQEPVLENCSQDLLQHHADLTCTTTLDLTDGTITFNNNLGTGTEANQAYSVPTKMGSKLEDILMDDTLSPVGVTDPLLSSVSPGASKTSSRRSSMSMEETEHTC

[32] = tested on: HEK293; assay: EBV LMP1 TES2 canonical NF-kB signalling blockers – cell-based, HEK293, luciferase, cherry-pick, dose response (AID 588343); assay type: functional; settings: Homo sapiens
[33] = HEK-293T viability loss after treatment – luminescence, T-cell screen hits, cytotoxicity control for TCR NF-kB inhibitor project, dose response (AID 489026); assay type: functional, cell-based;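 also: cells exposed to compound about 14 hours before the viability readout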
[34] = cells; assay type: functional, cell-based; remark: listed apart in the source
[35] = target: Cytochrome P450 2C19 (Homo sapiens, UniProt P33261); assay: Cytochrome panel assay with activity outcomes. Panel member name: p450-cyp2c19 Compounds with AC50 equal or less than 10 uM are considered active; assay type: functional; settings: read-out: AC50
Chain of Cytochrome P450 2C19 (P33261 whole entry): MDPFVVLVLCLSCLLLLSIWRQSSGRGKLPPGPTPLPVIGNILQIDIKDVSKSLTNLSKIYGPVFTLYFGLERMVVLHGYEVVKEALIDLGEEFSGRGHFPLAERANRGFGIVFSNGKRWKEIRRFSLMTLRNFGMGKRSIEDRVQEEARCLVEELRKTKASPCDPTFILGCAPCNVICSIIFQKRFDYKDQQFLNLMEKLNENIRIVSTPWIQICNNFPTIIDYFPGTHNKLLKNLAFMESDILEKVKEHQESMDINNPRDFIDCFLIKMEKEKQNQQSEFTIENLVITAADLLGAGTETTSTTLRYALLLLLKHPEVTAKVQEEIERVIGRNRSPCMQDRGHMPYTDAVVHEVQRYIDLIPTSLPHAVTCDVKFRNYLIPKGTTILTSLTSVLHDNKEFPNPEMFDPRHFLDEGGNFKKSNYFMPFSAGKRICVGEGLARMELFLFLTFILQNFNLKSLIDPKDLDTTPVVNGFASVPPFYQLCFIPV

[36] = microbe, parasite or virus in culture; assay type: functional; settings: Mycobacterium tuberculosis
[37] = target: Glucose-6-phosphate 1-dehydrogenase (Homo sapiens, UniProt P11413); assay: inhibition of Homo sapiens G6PD, dose series – biochemical, fluorescence, selectivity assay for P. falciparum G6PD inhibitor project, dose response (AID 504792); assay type: functional
Chain of Glucose-6-phosphate 1-dehydrogenase (P11413 whole entry): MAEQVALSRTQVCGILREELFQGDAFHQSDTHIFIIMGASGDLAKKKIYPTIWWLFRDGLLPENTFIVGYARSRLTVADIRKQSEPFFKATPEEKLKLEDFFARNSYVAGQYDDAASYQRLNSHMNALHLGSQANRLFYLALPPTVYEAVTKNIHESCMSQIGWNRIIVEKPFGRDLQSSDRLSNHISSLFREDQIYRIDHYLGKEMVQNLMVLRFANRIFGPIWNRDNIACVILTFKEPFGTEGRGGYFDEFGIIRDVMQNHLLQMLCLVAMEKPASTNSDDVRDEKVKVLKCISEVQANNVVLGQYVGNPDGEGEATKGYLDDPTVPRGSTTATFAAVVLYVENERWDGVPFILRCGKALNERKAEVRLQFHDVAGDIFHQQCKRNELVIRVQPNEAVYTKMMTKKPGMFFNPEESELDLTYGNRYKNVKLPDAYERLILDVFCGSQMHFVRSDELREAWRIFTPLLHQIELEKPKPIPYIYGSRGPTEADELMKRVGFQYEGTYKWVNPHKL

COC(=O)C[C@@H]1C[C@H]2c3cc(NS(=O)(=O)c4cccc(OC)c4)ccc3O[C@H]2[C@@H](CO)O1
AC50 [1]: 66.1 µM (active) | AC50 [2]: 3.74 µM (active)

Cc1ccc(CNc2nc3ccccc3n2C)cc1
IC50 [3]: > 67.5 µM (inactive)

C/C=C/c1ccc2c(c1)O[C@H](CN(C)C(=O)c1cnccn1)[C@H](C)CN([C@@H](C)CO)S2(=O)=O
AC50 [4]: 10.3 µM (active) | AC50 [5]: 26.6 µM (active)

COc1cccc(-n2c(SCC(=O)c3c[nH]c4ccccc34)nc3ccccc3c2=O)c1
CC50 [6]: > 25 µM (active)

C[C@@H]1CCCCO[C@@H](CN(C)C(=O)C2CCCCC2)[C@@H](C)CN([C@H](C)CO)C(=O)c2cc(NC(=O)Nc3ccc(C(F)(F)F)cc3)ccc2O1
AC50 [7]: 1.91 µM (active)

C[C@@H]1CN([C@@H](C)CO)C(=O)Cc2cc(NS(=O)(=O)c3cccs3)ccc2O[C@@H]1CN(C)Cc1ccc(C(=O)Nc2ccccc2N)cc1
AC50 [7]: 2.33 µM (active)

Cc1ccc2c(CC(=O)OCC(=O)Nc3ccc(Cl)cn3)coc2c1
AC50 [8]: 14.2 µM (active) | AC50 [9]: 52.7 µM (active)

COc1cc2c3c(c1)c(/N=N/C(=N)S)c(O)n3C(C)(C)C=C2C
IC50 [10]: > 20 µM (inactive) | IC50 [11]: > 80 µM (inactive)

CC(=O)Nc1nc(-c2ccc(Cl)cc2)nc(C)c1C(C)=O
IC50 [3]: > 67.6 µM (inactive)

COC/C=C/C1=CC2=CC(=O)C(C)(OC(=O)c3ccco3)C(=O)C2=CO1 (stereo unspecified)
IC50 [12]: 3.7 µM (active)

O=C(O)c1ccc(N/N=C/C=C/c2ccccc2[N+](=O)[O-])cc1
IC50 [3]: > 67.6 µM (inactive)

Oc1ccc(CN2CCCCC2)c2cccnc12
EC50 [13]: 11.4 µM (active) | EC50 [14]: 1.78 µM (active) | EC50 [15]: 3.45 µM (active) | EC50 [16]: 3 µM (active) | EC50 [17]: > 150 µM (inactive) | EC50 [18]: > 38 µM (not active)

Cc1cc(F)ccc1N1CCC(N2CCN(CCC(C)C)C(CCO)C2)CC1 (stereo unspecified)
IC50 [19]: > 50 µM (not active)

O=C(c1ccc(S(=O)(=O)c2ccc(F)cc2)c([N+](=O)[O-])c1)N1CCCCCC1
IC50 [20]: > 20 µM (inactive) | AC50 [21]: 2.38 µM (active) | EC50 [22]: 14.8 µM (active) | IC50 [23]: 5.7 µM (active) | IC50 [24]: 5.8 µM (active) | EC50 [25]: 4.38 µM (active) | AC50 [26]: 9.68 µM (active) | IC50 [27]: > 20 µM (inactive)

CC(C)NC(=O)Nc1ccc2c(c1)CC(=O)N([C@H](C)CO)C[C@H](C)[C@H](CN(C)S(=O)(=O)c1cccs1)O2
AC50 [1]: 12.8 µM (active) | AC50 [28]: 7.82 µM (active) | AC50 [2]: 4.72 µM (active)

C[C@H]1CN([C@@H](C)CO)C(=O)c2cc(NS(=O)(=O)c3ccc(Cl)cc3)ccc2O[C@H]1CN(C)S(=O)(=O)c1ccc(Cl)cc1
AC50 [7]: 4.63 µM (active)

COc1ccc(/C=C2\SC(=S)N(CCC(=O)N3CCCCC3)C2=O)cc1
CC50 [6]: > 25 µM (active)

O=C(N/N=C/c1ccc(-c2cccc(C(F)(F)F)c2)o1)c1ccccc1O
CC50 [29]: 11.5 µM (active)

CCC(C)Oc1ccccc1C1CC(=O)NC2=C1C(=O)CCC2 (stereo unspecified)
EC50 [15]: 12.5 µM (active) | EC50 [16]: 12.7 µM (active)

Cc1ccc(CSc2nccc(-c3c(C)nc4ccccn34)n2)cc1
CC50 [29]: 24.7 µM (active)

COc1cccc(/C=N/Nc2ncnc3c2ncn3Cc2ccccc2)c1O
EC50 [30]: > 350 µM (not active) | AC50 [31]: 4.6 µM (active) | AC50 [32]: 4.68 µM (active) | IC50 [33]: > 80 µM (inactive) | EC50 [34]: 6.75 µM (active)

CSc1nc(-c2ccccc2)nc(N2CCOCC2)c1C(C)=O
IC50 [19]: > 50 µM (not active)

CC(CC(=O)Nc1ccc(Cl)c([N+](=O)[O-])c1)c1ccccc1 (stereo unspecified)
AC50 [35]: 2.51 µM (inconclusive) | CC50 [36]: 30.7 µM (active)

Nc1c2c(nc3ccn(Cc4ccccc4)c(=O)c13)CCC2
CC50 [36]: > 40 µM (active)

Cc1cc(S)nc(-c2ccccn2)n1
CC50 [29]: 31.8 µM (active)

O=C(NCCN1CCN(Cc2ccccc2)CC1)c1cc2c(O)nc3ccccc3c2s1
EC50 [15]: 13 µM (active) | EC50 [16]: 14.3 µM (active)

CC1(C)CC(=O)C2=C(C1)N1C(=C(C#N)C2c2ccccc2Cl)N=C(N)c2ccccc21 (stereo unspecified)
EC50 [15]: 20.4 µM (active) | EC50 [16]: 22.7 µM (active)

C[C@H](CO)N1C[C@H](C)[C@H](CN(C)C)Oc2c(NC(=O)Nc3ccc(C(F)(F)F)cc3)cccc2C1=O
AC50 [7]: 3.27 µM (active)

O=c1oc(-c2cccnc2)nc2ccccc12
IC50 [19]: 0.966 µM (active)

COC(=O)c1sccc1NC(=O)CSc1ccccc1NS(=O)(=O)c1cc(Cl)ccc1Cl
IC50 [20]: > 20 µM (inactive) | EC50 [22]: 6.35 µM (active) | IC50 [23]: 8.22 µM (active) | IC50 [24]: 5.68 µM (active) | EC50 [25]: 6.42 µM (active) | IC50 [27]: > 20 µM (inactive)

CC(C)(C)c1ccc(CN2N=Nc3ccccc3S2(=O)=O)cc1
IC50 [12]: 24.1 µM (active)

O=C(CSc1nc2cc(Cl)c[nH]c-2n1)Nc1cccc(F)c1
CC50 [29]: > 40 µM (active)

CC1CCN(CC(=O)Nc2ccccc2C#N)CC1
IC50 [19]: > 50 µM (not active)

COc1cc(S(=O)(=O)N2CCOCC2)ccc1NC(=O)COC(=O)COc1ccccc1
IC50 [19]: 3.63 µM (active)

O=C(CSc1nc2ccccc2[nH]1)NC1CCCc2ccccc21 (stereo unspecified)
IC50 [37]: > 80 µM (inactive)

Source: ChEMBL document CHEMBL1201862, “PubChem BioAssay data set” (2004)
